Details: Liquid

CCCCCCCCCCCCC(=O)OC [methyl tridecanoate]
Transpiration method
Details	vapor or sublimation pressure [kPa]
298.15 K	0.000239
300.15 K	0.000302
303.25 K	0.00041
305.15 K	0.000485
308.15 K	0.000697
310.15 K	0.000799
313.35 K	0.00112
315.05 K	0.0013
318.25 K	0.00174
320.15 K	0.00203
323.25 K	0.00258
325.05 K	0.00314
328.15 K	0.00415
330.15 K	0.00492
333.15 K	0.00626
335.15 K	0.00739
338.15 K	0.00934
340.15 K	0.0111
343.05 K	0.0131
345.15 K	0.0163
348.15 K	0.0197
350.15 K	0.023
353.15 K	0.0286
355.15 K	0.0338

CCCCCCCCCCC(=O)OC [methyl undecanoate]
Details	vapor or sublimation pressure [kPa]
305.25 K	0.003577
307.81 K	0.004504
310.15 K	0.005571
312.67 K	0.006957
315.06 K	0.008553
317.52 K	0.01055
319.94 K	0.01283
322.42 K	0.01574
324.82 K	0.019
327.29 K	0.02304
329.69 K	0.02778
332.16 K	0.03345
334.54 K	0.03987
337.03 K	0.04783
339.43 K	0.05689
341.91 K	0.06735

— the NIST ThermoML archive (doi:10.1016/j.jct.2019.01.007)
